{
  "source": "patent US20250199015A1",
  "about": "“CYCLIN-DEPENDENT KINASE 2 INHIBITORS FOR MEDICAL TREATMENT” (INCYCLIX BIO, LLC, priority 2022, published 2025)",
  "key": {"[1]": {"tested_on": "HCC-1569 cell loaded Hollow Fibers", "test": "Mouse hollow fiber assay (CellTiter Glo)", "type": "in vivo, mice", "settings": "75, 100, 150 mg/kg twice daily, Day 16", "method": "The mouse hollow fiber assay was conducted using three tumor cell lines, OVCAR-3 (ovarian), MKN-1 (gastric), and HCC-1569 (breast), 1e7 OVCAR-3, 5e6 MKN-1, and 1e7 HCC-1569 cells were loaded into Hollow Fibers, placed in cell culture dishes containing RPMI-1640 with 20% FCS and 1% penicillin/streptomycin, and were equilibrated in an incubator at 37 C, 5% CO2 overnight. On Day 0, three fibers were implanted in two different compartments: subcutaneous and intraperitoneal of twenty-four female NMRI nude mice ages 4-5 weeks. […] Female NMRI nude mice were implanted both subcutaneously and intraperitoneally with HCC-1569, MKN1, and OVCAR3 tumor cell-loaded Hollow Fibers on Day 0. The number of animals alive on Day 0 (implantation) and on Day 16 (necropsy) in each group is shown in parentheses in the legend.\nHCC-1569 cell loaded Hollow Fibers were implanted both subcutaneously and intraperitoneally into female NMRI nude mice on Day 0. Hollow Fibers were collected during necropsy on Day 16 and analyzed using a CellTiter Glo® assay."}, "[2]": {"tested_on": "MCF7PDRC15-1 palbociclib resistant breast cancer cells", "test": "CellTiter-Glo viability, palbociclib-resistant MCF7", "type": "cell-based", "settings": "Homo sapiens", "method": "Plates were removed from incubator on day six and treated with CellTiter-Glo (Promega, Inc) following manufacturer's specifications. Plates were then read on Biotek luminometer with 1 sec/well integration. Results were converted to Microsoft Excel and transferred to Graphpad Prism for analysis.\n(§1) The Palbo-R MCF7PDRCL5-1 cells were grown in EMEM, glutamax, 10% FBS, 1×ITS. […] Plates were removed from incubator on day six and treated with CellTiter-Glo (Promega, Inc) following manufacturer's specifications. Plates were then read on Biotek luminometer with 1 sec/well integration. Results were converted to Microsoft Excel and transferred to Graphpad Prism for analysis.\nas §1, with “In a similar manner,” for “The”, “Glutamax,” for “glutamax,”"}, "[3]": {"biological_target": "T1, human OCT1 (Homo sapiens, UniProt O15245)", "T1 construct": "expressed in transfected cells; host or cells: HEK293", "T1 sequence (O15245 1-554)": "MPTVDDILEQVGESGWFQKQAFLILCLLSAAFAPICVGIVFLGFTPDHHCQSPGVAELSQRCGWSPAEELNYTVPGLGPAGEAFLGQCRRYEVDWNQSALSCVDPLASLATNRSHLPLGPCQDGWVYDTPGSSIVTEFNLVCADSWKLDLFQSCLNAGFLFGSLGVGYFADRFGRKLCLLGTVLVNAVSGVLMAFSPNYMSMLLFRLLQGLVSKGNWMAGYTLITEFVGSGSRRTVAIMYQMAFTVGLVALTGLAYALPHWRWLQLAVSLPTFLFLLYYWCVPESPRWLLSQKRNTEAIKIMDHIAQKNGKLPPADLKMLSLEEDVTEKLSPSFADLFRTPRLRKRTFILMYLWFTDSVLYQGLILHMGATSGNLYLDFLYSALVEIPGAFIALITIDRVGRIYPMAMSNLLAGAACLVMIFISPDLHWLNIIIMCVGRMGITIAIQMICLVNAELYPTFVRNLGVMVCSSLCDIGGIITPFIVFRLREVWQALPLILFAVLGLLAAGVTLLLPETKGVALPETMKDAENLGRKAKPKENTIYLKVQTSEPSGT", "test": "SLC transporter inhibition in HEK293 cells", "type": "in vitro ADME"}, "[4]": {"biological_target": "MATE1 (Homo sapiens, UniProt Q96FL8)", "sequence (Q96FL8 whole entry)": "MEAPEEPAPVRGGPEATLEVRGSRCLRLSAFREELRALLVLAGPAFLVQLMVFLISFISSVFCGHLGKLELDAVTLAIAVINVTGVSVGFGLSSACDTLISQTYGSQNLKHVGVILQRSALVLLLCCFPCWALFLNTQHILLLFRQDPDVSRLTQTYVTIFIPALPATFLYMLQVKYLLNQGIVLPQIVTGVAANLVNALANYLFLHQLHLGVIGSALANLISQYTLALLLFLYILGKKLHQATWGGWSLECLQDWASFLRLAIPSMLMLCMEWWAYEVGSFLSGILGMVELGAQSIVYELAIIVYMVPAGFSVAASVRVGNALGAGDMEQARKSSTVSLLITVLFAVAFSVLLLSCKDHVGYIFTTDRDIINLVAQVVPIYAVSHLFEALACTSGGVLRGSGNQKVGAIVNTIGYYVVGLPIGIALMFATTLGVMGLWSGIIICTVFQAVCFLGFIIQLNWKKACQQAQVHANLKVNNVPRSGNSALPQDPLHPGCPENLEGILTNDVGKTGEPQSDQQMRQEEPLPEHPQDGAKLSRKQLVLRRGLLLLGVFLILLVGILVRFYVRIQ", "test": "SLC transporter inhibition in HEK293 cells"}, "[5]": {"biological_target": "T2, hERG current (Homo sapiens, UniProt Q12809)", "T2 construct": "expressed in transfected cells; host or cells: HEK293 (stably transfected)", "T2 sequence (Q12809 whole entry)": "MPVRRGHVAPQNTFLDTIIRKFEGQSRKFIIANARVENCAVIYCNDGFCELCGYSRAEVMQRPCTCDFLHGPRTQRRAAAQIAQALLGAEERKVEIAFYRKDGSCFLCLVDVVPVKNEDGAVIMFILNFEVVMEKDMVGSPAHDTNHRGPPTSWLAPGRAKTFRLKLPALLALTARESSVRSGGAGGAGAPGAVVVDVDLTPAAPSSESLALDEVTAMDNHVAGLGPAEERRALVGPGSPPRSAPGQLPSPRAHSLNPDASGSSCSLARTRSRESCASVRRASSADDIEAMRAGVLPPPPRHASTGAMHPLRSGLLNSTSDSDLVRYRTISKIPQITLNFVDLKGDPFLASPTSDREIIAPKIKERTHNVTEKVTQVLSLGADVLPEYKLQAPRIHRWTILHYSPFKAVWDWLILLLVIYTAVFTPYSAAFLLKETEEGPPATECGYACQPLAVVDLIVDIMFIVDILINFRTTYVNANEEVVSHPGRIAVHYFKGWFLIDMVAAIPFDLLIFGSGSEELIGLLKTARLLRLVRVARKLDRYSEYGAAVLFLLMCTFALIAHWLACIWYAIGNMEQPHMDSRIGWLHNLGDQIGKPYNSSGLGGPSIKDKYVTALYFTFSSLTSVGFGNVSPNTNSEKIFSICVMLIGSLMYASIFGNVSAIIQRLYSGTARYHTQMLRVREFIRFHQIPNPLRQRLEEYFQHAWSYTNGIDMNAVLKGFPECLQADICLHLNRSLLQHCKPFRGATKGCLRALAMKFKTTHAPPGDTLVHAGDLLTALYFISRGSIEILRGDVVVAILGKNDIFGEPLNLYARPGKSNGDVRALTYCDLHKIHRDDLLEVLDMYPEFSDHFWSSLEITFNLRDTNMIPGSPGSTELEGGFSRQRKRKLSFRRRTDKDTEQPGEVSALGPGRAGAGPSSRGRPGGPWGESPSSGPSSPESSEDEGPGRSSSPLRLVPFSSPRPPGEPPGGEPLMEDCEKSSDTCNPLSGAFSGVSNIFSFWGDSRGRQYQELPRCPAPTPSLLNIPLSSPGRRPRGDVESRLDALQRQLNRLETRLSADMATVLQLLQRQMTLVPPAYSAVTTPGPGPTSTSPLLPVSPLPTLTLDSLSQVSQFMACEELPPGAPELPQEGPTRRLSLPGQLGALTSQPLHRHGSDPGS", "test": "hERG whole-cell patch clamp in HEK293 cells", "type": "cell-based", "settings": "37±1° C.; read-out: hERG current amplitude IC50", "method": "Experiments were performed at 37±1° C. Currents were measured using the whole-cell patch clamp method. Glass pipettes were pulled from borosilicate glass by a horizontal puller (Sutter Instruments, USA). Bath temperature was measured by a thermistor placed near the cell under study and were maintained by a thermoelectric device. An Axopatch 1-D amplifier of voltage clamp pulses and data acquisition was controlled by a computer running pClamp software (v10.7). The voltage protocol comprised: −80 mV for 100 ms, +40 mV for 500 ms, a −60 ms decreased slope of 1.2 V/see, then −80 mV for 3 s. Current was measured as outward current during ramp, with a pacing rate of 0.2 Hz (every 5 s), filtered at 2 kHz and digitized at 5 kHz. This protocol was repeated every 5 s until hERG tail current maintains stability, defined as approximately <10% change in current amplitude for at least 6 consecutive traces. Then the Compound I was applied as the protocol continues. Current was measured as the peak current during the ramp. […] Values were derived using the average of 3 current traces."}, "[6]": {"test": "Approximate solvent solubility of free base", "type": "physicochemical", "method": "The following procedure was carried out: 25, 50 and 100 μL aliquots of the appropriate solvent system was added to 20 mg of free base. The experiments were checked for dissolution. Where dissolution was not observed, the experiments were stirred at 40° C. to check for dissolution at elevated temperature. Aliquots of solvent were added until dissolution was observed, or 2 mL of total solvent was added. Any clear solutions were uncapped and allowed to evaporate at ambient temperature (ca. 20° C.) and pressure. Any slurries were isolated by centrifugation and the solids were analyzed by XRPD."}},
  "note": "Read-outs that look alike come from different tables or passages of the source.",
  "data": [
    {"smiles": "NS(=O)(=O)c1ccc(Nc2ncc3cc4n(c3n2)C2(CCCCC2)C(=O)NN4)cc1", "note": "[Compound I]", "values": [
      {"measurement": "tumor bioluminescence signal (CellTiter Glo) of Hollow Fibers", "setting": "[1]", "value": "significant reduction"},
      {"measurement": "IC50", "setting": "[2]; MCF7, read-out: Cell Viability IC50, Compound I alone, absence of palbociclib", "value": 0.995, "unit": "µM"},
      {"measurement": "IC50", "setting": "[2]; MCF7, read-out: Cell Viability IC50, in the presence of 1 μM palbociclib", "value": 0.017, "unit": "µM"},
      {"measurement": "Maximum Percent inhibition", "setting": "[3]; OCT1, HEK293 cells", "value": 89, "unit": "%"},
      {"measurement": "IC50", "setting": "[3]; OCT1, HEK293 cells, read-out: IC50", "value": 5.5, "unit": "µM"},
      {"measurement": "IC50", "setting": "[3]; read-out: OCT1 IC50", "value": 5.5, "unit": "µM"},
      {"measurement": "IC50", "setting": "[4]; MATE1 IC50", "value": 13.3, "unit": "µM"},
      {"measurement": "inhibition at 20 μM", "setting": "[4]; human, HEK293 cells expressing MATE1, probe metformin (10 μM)", "value": 62, "unit": "%"},
      {"measurement": "IC50", "setting": "[5]", "value": 8.6, "unit": "µM"},
      {"measurement": "Solubility", "setting": "[6]; 2-Methyl-THF", "value": "<10000", "unit": "µg/mL"},
      {"measurement": "Solubility", "setting": "[6]; 2-Propanol", "value": "<10000", "unit": "µg/mL"},
      {"measurement": "Solubility", "setting": "[6]; 2-Propanol:Water (80:20 % v/v)", "value": "<10000", "unit": "µg/mL"},
      {"measurement": "Solubility", "setting": "[6]; Acetone", "value": "<10000", "unit": "µg/mL"},
      {"measurement": "Solubility", "setting": "[6]; Anisole", "value": "<10000", "unit": "µg/mL"},
      {"measurement": "Solubility", "setting": "[6]; Ethanol", "value": "<10000", "unit": "µg/mL"},
      {"measurement": "Solubility", "setting": "[6]; Ethyl Acetate", "value": "<10000", "unit": "µg/mL"},
      {"measurement": "Solubility", "setting": "[6]; Methylethyl Ketone", "value": "<10000", "unit": "µg/mL"},
      {"measurement": "Solubility", "setting": "[6]; N,N-dimethylacetamide, organic solvent or mixture, thermodynamic from solid, read-out: Solubility", "value": 22000, "unit": "µg/mL"},
      {"measurement": "Solubility", "setting": "[6]; Tetrahydrofuran", "value": "<10000", "unit": "µg/mL"},
      {"measurement": "Solubility", "setting": "[6]; Toluene", "value": "<10000", "unit": "µg/mL"},
      {"measurement": "Solubility", "setting": "[6]; dimethylsulfoxide, organic solvent or mixture, thermodynamic from solid, read-out: Solubility", "value": 88000, "unit": "µg/mL"}
    ]}
  ]
}
